# Source: patent US5428019A, “Bombesin analogs” (Merrell Dow Pharmaceuticals Inc., priority 1994, dated 1995)
# Where a SMILES comes first, the peptide text is derived from it. [ ]: non-standard residue; d: D form. The star is where a group is joined. Pheψ(CH2S)LeuNH2 = CC(C)C[C@H](SC[C@H](Cc1ccccc1)N*)C(N)=O; pGlu = O=C1CC[C@@H](C(=O)O)N1
# Experiments:
# [1] = molecular target: T1, Bombesin Receptor (Mus musculus, UniProt P21729); test: Phosphatidylinositol turnover in chopped mouse pancreas; assay type: cell-based; parameters: key to PI Turnover Agonist: (+) represents agonist activity; (-) indicates no agonist activity
# T1 construct: Pancreata from mice were chopped at 350 μm with a tissue chopper and pooled; from tissue; host or cells: chopped mouse pancreas
# T1 sequence (P21729 whole entry): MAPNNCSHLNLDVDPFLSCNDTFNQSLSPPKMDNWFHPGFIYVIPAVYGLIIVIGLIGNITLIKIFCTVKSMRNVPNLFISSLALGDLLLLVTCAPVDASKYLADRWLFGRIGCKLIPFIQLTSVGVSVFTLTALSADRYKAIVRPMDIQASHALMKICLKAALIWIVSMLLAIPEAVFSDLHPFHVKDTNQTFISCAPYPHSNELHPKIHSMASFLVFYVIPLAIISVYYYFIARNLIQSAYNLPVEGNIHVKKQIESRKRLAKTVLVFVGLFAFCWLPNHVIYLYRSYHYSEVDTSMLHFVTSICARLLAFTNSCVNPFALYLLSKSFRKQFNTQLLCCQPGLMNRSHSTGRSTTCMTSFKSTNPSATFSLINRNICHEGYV
# Method: Pancreata from mice were chopped at 350 μm with a tissue chopper and pooled. The chopped tissue was washed twice with oxygenated Krebs-Hepes, then incubated for 30 minutes in 37° C. oxygenated Krebs-Hepes buffer with fresh buffer after 15 minutes. The tissue was then incubated in this buffer containing 200 μCi of [^3 H] inositol at 37° C. for 1 hour. The tissue was then washed twice and incubated for another 30 minutes in oxygenated Krebs-Hepes (containing 10 mM Li^+) at 37° C. with a fresh buffer change after 15 minutes. Portions of the tissue mass (approximately 10 mg per assay tube) were then placed in Li^+ buffer with protease inhibitors, (40 μg/ml bacitracin, 4 μg/ml leupeptin, 4 μg/ml chymostatin, 8 μg/ml thiorphan), 0.1% BSA, and 0.1-10 μM peptide in a final volume of 250 μl. After 60 minutes at room temperature, the phosphatidylinositol turnover was terminated by the addition of 940 μl chloroform:methanol (1:2), followed by 310 μl chloroform, followed by 310 μl water. Each tube was then vortexed for 5 seconds and then centrifuged at 2500 x g for 10 minutes to separate the phases. 50 μl of the bottom phase (chloroform) was withdrawn from each tube and placed in a counting vial, dried, and counted in scintillation fluid. 900 μl of the top (aqueous) phase were then mixed with 2.1 ml water and loaded onto a 0.5 ml Biorad AG-1X8 (formate) ion exchange column. The material on the columns was washed in order with: 1) 10 ml of water 2) 5 ml of 5 mM disodium tetraborate/60 mM sodium formate 3) 10 ml of 1 M ammonium formate in 0.1 M formic acid. The final (third) wash was collected and one ml was mixed with 14 ml of Bio-Safe scintillant and counted. The ratio of these counts (total inositol phosphates) to the corresponding organic phase counts (inositol incorporated into the tissue) was then calculated for each sample. The ratios in the presence of test compound and/or standards were then compared to the ratios for control tubes (i.e., no stimulating agonist). The abilities of test compounds to stimulate phosphatidyl-inositol turnover were determined with the aid of a computer program. […] The ordinate (y-axis) indicates the observed PI turnover as a percentage of control. Values are mean±standard error of triplicate determinations.
# [2] = tested on: cell surface receptors that bind bombesin; conditions: background section; read-out: KD of high-affinity cell surface receptors that bind bombesin; cited from earlier work
# [3] = molecular target: T2, bombesin/GRP receptor (Mus musculus, UniProt P21729); test: Competition for 125I-GRP binding to murine pancreatic membranes; conditions: Kd (nM), competitive binding, mouse pancreas; averages of multiple experiments
# T2 construct: The pancreata from one or more mice were pooled and homogenized; from tissue; host or cells: mouse pancreas membranes
# T2 sequence (P21729 whole entry): as above
# Method: The pancreata from one or more mice were pooled and homogenized in 50 mM HEPES (pH 7.4) containing 120 mM NaCl, 5 mM KCl, 1 mM EDTA and protease inhibitors (1 μg/ml aprotinin, leupeptin, pepstatin; 4 μg/ml bacitracin, antipain, bestatin; 100 μM PMSF) at 4° C. and centrifuged at 37,500 X g for 15 minutes. The pellet was resuspended in 50 mM HEPES (pH 7.4) containing 10 mM EDTA, 300 mM KCl, and protease inhibitors, and then incubated for 30 minutes at 4° C. The suspension was centrifuged as above and the pellet was washed two times in 50 mM HEPES (pH 7.4) containing 8 μg/ml thiorphan and protease inhibitors, and again centrifuged. The tissue was then resuspended in incubation buffer (1 ml per 4 mg pancreas) and incubated for 15 minutes at room temperature, then 250 μl were added to each assay tube to commence the assay. […] The assay was allowed to proceed to equilibrium for 90 minutes at room temperature. After this time, the contents of each tube was rapidly filtered over Whatman GF/B filters presoaked in 0.1% polyethyleneimine and the filters were rapidly washed three times with ice-cold 50 mM HEPES (pH 7.4). Filter-bound radioactivity was quantitated in a gamma counter. […] Affinity and maximal binding were calculated with LIGAND (Biosoft, Cambridge, UK) (FIGS. 1 and FIG. 2)
# The abscissa (x-axis) logarithmically indicates the concentration of agonists being tested.
SMILES,PI Turnover Agonist [1],Kd [2] [nM],Kd [3] [nM],"PI Turnover % Inhibition ([1]; antagonist activity, referenced to the stimulation produced by 100 nM GRP) [%]"
"CSCC[C@H](NC(=O)[C@H](CC(C)C)NC(=O)[C@H](Cc1cnc[nH]1)NC(=O)CNC(=O)[C@@H](NC(=O)[C@H](C)NC(=O)[C@H](Cc1c[nH]c2ccccc12)NC(=O)[C@H](CCC(N)=O)NC(=O)[C@H](CC(N)=O)NC(=O)CNC(=O)[C@H](CC(C)C)NC(=O)[C@H](CCCN=C(N)N)NC(=O)[C@H](CCC(N)=O)NC(=O)[C@@H]1CCC(=O)N1)C(C)C)C(N)=O [Bombesin, pGlu--Gln--Arg--Leu--Gly--Asn--Gln--Trp--Ala--Val--Gly--His--Phe--Met--NH2]",+,1,,
"CC(C)C[C@H](NC(=O)[C@H](CCCNC(=N)N)NC(=O)[C@H](CCC(N)=O)NC(=O)[C@@H]1CCC(=O)N1)C(=O)NCC(=O)N[C@@H](CC(N)=O)C(=O)N[C@@H](CCC(N)=O)C(=O)N[C@@H](Cc1c[nH]c2ccccc12)C(=O)N[C@@H](C)C(=O)N[C@H](C(=O)NCC(=O)N[C@@H](Cc1c[nH]cn1)C(=O)N[C@H](CS[C@@H](CC(C)C)C(N)=O)Cc1ccccc1)C(C)C [[Phe^13 .psi.[CH2 S]Leu^14 bombesin, pGlu--Gln--Arg--Leu--Gly--Asn--Gln--Trp--Ala--Val--Gly--His--Phe.psi.[CH2 S]Leu--NH2] ([pGlu]QRLGNQWAVGH-{Pheψ(CH2S)LeuNH2})",,,2.8,54
